The text below walks through data of patent US20040019092A1, “Non-peptide somatostatin receptor ligands” (priority 2001, published 2004).

pIC50: −log10 of the molar value. Several values for one entry are separate records, joined by “and”; a condition that tells them apart may be missing. Identical values can stand only once.

The target of data set [1] is T1, human sst2 receptor sub-type (Homo sapiens, UniProt P30874).
T1 construct: host or cells: SRIF receptor expressing cell cultures (general statement only)
Put plainly: In vitro binding, human sst2 receptor sub-type (SSTR2). Particulars: Tables 8/9: Bind SSTR2 nM. As for the experimental part:
The in vitro binding affinities for rat cortex SRIF receptors and the human sst2 receptor sub-type was assessed. Further the in vitro inhibition of the GHRH induced GH secretion in primary cultures of rat pituitary cells as well as the in vivo inhibition of GH secretion in the rat after systemic or enteral application was studied. […] Therefore, the in vivo activities of the compounds in rats with respect to inhibition of growth hormone release was also assessed. Most compounds selected were tested by enteral—intraduodenal (i.d.) application. For determination of the absolute activity and for the calculation of an enteral bioavailability, single subcutaneous (s.c.) application of intravenous (i.v.) infusion was used.

In data set [2] the target is T2, SSTR4 (Homo sapiens, UniProt P31391).
T2 construct: host or cells: SRIF receptor expressing cell cultures (general statement only)
In words: Binding SSTR4. Particulars: > = extrapolated value; read-out: Bind SSTR4.

For data set [3], the system named is GHRH stimulated GH secretion. Put plainly: GH secretion in vivo, rat, intravenous infusion with repeated GHRH stimulation. Particulars: for GH, Ur Inf15′ +GHRH / GH, UR Inf30′ +GHRH / GH, UR Inf60′ +GHRH: Tables 8/9, urethane; for GH, Ur Inf15′ +GHRH / INFUS. + GHRH ID50 15′: 15′ of infusion; for GH, UR Inf30′ +GHRH / INFUS. + GHRH ID50 30′: 30′ of infusion; for GH, UR Inf60′ +GHRH / INFUS. + GHRH ID50 60′: 60′ of infusion; for GH vivo Inf + GHRH ID50 (mean of time points): urethane, i.v. infusion, GHRH stimulated; for INFUS. + GHRH ID50 MEAN: Table 4, mean of infusion time points; for INFUS. + GHRH ID50 15′ / INFUS. + GHRH ID50 30′ / INFUS. + GHRH ID50 60′: Table 4, urethan.

The target in data set [4] is SS1 (Rattus norvegicus, UniProt P30680). In words: SS-1 binding (Bind SS1 D.H.).
In data set [5] the test system is GHRH induced GH secretion in primary cultures of rat pituitary cells. Put plainly: In vitro inhibition of GHRH induced GH secretion (GH vitro +GHRH). The data set is classed as cell-based.
Data set [6] addresses T3, SSTR5 (Homo sapiens, UniProt P35346).
T3 construct: host or cells: SRIF receptor expressing cell cultures (general statement only)
In words: Binding SSTR5. Particulars: read-out: Bind SSTR5.

Data set [7] concerns the target T4, SSTR3 (Homo sapiens, UniProt P32745).
T4 construct: host or cells: SRIF receptor expressing cell cultures (general statement only)
Put plainly: Binding SSTR3. The settings on record: > = extrapolated value; read-out: Bind SSTR3.

Data set [8] has as its system GH secretion. Put plainly: GH secretion in vivo, rat, subcutaneous application, 1 h (basal). The settings on record: for GH vivo s.c. 1 h ID50: rat, basal GH secretion, 1 h after subcutaneous application.
Data set [9] has as its target T5, SSTR1 (Homo sapiens, UniProt P30872).
T5 construct: host or cells: SRIF receptor expressing cell cultures (general statement only)
In words: Binding SSTR1. Particulars: > = extrapolated value; read-out: Bind SSTR1.

Data set [10] concerns GH secretion. In words: GH secretion in vivo, rat, intraduodenal (enteral) application, 1 h (basal). Particulars: for GH vivo i.d. 1 h ID50: basal GH secretion, 1 h after intraduodenal application, mostly approximate ID50 from single 10 mg/kg dose, Ø = no effect at this dose, > = extrapolated value; for enteral ID50 (GH secretion): enteral (intraduodenal) application.
Data set [11] relates to prolactin secretion. Put plainly: Unanesthetized estradiol primed male rats, oral by gavage: prolactin. The data set is classed as in vivo, rat. The settings on record: estradiol implant male rats, oral by gavage, 1 hour; ø = no effect at this dose. The source says: (§1) Table 5 summarizes the results obtained in the estradiol primed male rats that received the compounds orally by gavage. These rats have stabilized elevated GH plasma levels as well as increased prolactin levels. In contrast to normal untreated rats, who's prolactin secretion is not sensitive to the inhibitory effect of somatostain, in these rats the prolactin secretion is inhibited to a similar degree as the GH secretion. Therefore, the inhibitory effect can be measured on 2 different parameters, GH and prolactin. The mean enteral absorption and activity of the respective compounds are shown.

The test system of data set [12] is GH secretion. Put plainly: Unanesthetized estradiol primed male rats, oral by gavage: GH. The data set is classed as in vivo, rat. The settings on record: estradiol implant male rats, oral by gavage, 1 hour. The procedure: The inhibitory effect of the compounds on GH release may also be examined after oral application to male rats with oestradiol implants. This test is carried out as follows.
A loop (length 50 mmØ3 mm) of silastic with 50 mg of oestradiol is implanted under the dorsal skin of anaesthetized male OFA rats that have a weight of ca. 300 g. At various times (1 to 6 months later), these animals, in a fasted state, are used repeatedly for tests. The test substances are active in this test at doses from 0.1 to 5 mg/kg, when GH level in the blood serum is determined by radio-immunoassay 1 and 2 hours after oral administration.
as §1

T1 sequence (P30874 whole entry): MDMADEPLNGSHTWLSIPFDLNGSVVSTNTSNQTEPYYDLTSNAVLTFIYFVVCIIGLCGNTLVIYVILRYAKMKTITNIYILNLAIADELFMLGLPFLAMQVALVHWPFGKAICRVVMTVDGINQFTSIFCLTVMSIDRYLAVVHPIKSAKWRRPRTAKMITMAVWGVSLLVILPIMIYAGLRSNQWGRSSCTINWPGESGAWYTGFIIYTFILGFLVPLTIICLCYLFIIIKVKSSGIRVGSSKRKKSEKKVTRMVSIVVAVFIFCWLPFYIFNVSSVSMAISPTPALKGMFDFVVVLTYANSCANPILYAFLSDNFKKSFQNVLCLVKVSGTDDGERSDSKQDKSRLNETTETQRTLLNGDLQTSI
T2 sequence (P31391 whole entry, species assumed): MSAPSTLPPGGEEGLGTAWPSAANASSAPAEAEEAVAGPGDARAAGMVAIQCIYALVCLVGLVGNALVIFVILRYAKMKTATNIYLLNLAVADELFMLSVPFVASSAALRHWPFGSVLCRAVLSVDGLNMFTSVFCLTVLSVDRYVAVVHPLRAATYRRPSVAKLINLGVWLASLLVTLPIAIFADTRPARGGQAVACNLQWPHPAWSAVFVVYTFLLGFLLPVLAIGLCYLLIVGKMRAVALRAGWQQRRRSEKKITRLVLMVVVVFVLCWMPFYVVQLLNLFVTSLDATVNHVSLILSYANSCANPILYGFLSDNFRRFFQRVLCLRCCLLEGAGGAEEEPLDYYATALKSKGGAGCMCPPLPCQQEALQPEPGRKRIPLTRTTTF
T3 sequence (P35346 whole entry, species assumed): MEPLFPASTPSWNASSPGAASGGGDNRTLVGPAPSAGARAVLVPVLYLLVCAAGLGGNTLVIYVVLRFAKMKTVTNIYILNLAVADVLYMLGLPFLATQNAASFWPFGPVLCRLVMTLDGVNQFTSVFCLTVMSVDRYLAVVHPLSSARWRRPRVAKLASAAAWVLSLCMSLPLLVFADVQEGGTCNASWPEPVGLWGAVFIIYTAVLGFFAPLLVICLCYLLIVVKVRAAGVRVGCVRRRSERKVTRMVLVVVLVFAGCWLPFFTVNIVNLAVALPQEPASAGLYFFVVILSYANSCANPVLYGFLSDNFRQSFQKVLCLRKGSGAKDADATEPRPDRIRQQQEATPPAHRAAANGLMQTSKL
T4 sequence (P32745 whole entry, species assumed): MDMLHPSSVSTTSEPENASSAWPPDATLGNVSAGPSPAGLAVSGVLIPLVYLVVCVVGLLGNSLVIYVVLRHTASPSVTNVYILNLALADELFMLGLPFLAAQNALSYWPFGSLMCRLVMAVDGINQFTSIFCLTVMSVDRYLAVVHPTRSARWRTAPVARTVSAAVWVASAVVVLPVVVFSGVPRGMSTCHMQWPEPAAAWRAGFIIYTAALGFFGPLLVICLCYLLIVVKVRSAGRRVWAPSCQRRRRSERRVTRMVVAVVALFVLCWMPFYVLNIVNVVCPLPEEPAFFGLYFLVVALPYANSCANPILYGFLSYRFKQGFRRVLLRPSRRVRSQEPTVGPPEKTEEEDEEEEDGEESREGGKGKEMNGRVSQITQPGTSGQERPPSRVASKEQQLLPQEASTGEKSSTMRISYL
T5 sequence (P30872 whole entry, species assumed): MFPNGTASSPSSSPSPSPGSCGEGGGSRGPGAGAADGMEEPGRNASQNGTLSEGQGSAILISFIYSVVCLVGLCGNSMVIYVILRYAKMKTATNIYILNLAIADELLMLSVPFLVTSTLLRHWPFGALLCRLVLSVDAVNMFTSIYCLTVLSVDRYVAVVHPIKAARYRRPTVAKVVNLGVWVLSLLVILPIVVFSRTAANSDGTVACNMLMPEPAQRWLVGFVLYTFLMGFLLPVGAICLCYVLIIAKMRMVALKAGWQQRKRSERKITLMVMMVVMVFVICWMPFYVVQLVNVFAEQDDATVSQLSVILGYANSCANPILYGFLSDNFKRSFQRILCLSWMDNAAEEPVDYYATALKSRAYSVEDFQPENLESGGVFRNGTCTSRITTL
Chain of SS1 (P30680 whole entry): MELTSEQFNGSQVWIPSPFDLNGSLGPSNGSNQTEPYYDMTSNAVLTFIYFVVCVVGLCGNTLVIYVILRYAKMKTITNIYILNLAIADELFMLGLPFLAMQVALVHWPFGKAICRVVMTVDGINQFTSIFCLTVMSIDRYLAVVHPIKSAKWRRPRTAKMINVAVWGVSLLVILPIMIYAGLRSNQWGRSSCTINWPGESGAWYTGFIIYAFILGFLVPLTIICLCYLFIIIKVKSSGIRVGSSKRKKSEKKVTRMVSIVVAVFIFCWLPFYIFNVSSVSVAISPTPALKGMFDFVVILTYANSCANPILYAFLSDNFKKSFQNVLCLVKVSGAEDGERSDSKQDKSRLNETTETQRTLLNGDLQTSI

`Cc1cccc2c(CC3C(=O)N(CCCCCN)C(=O)N3S(=O)(=O)c3ccc(Oc4ccc(O)cc4)c(C#N)c3)c[nH]c12` (stereo not shown) [Compound 14]: the pIC50 in data set [1] was 8.24; in data set [2], less than 6.00; in data set [5], 7.96; in data set [6], 6.35; in [7] it was 6.52; in data set [9], less than 6.00. Moreover, the “GH, Ur Inf15′ +GHRH” value in [3] is on record as “˜44 μg/kg/h”. In addition, the “GH, UR Inf30′ +GHRH” value in [3] worked out at 11.000 µg/kg/h. Moreover, the “GH, UR Inf60′ +GHRH” value in data set [3] was 14.000 µg/kg/h. The “GH vivo Inf + GHRH ID50 (mean of time points)” value (shortened to “GH vivo Inf + GHRH ID50”) in [3] is 19.000 µg/kg/h. Also, the “Bind SS1 D.H.” value in data set [4] stood at 2.50 nM. For the same molecule, the “SS-1 binding pKd” value in [4] is recorded as 8.56. Besides, the “EC50 for inhibition of GH release, subcutaneous” value in data set [8] (applied subcutaneous) is given as roughly 1 mg/kg. Besides, the “GH vivo s.c. 1 h ID50” value in data set [8] was 1.16 mg/kg. Besides, in data set [10], the “GH vivo i.d. 1 h ID50” value is greater than 30 mg/kg.
On to `N#Cc1cc(S(=O)(=O)N2C(=O)N(CCCCCN)C(=O)C2Cc2c[nH]c3ccccc23)ccc1Oc1ccc(N)cc1` (stereo not shown) [Compound 42], for which the pIC50 in data set [1] was 7.36; in data set [2], 5.28; in [5], 6.59; in [6], 5.85; in [7], 5.55; in data set [9] it was 4.30. For the same molecule, in [3], the “GH, Ur Inf15′ +GHRH” value stood at 856.000 µg/kg/h. Also, in data set [3], the “GH, UR Inf30′ +GHRH” value was 434.000 µg/kg/h. The “GH, UR Inf60′ +GHRH” value in data set [3] is 425.000 µg/kg/h. Also, the “GH vivo Inf + GHRH ID50” value in [3] was 540.000 µg/kg/h. Also, the “GH vivo i.d. 1 h ID50” value in data set [10] is listed as “Ø10000 μg/kg”.
The molecule `Cc1cccc2c(CC3C(=O)N(CCCCCN)C(=O)N3S(=O)(=O)c3ccc(Oc4ccc(O)c(Cl)c4)c(C#N)c3)c[nH]c12` (stereo not shown) [Compound 44] gave a pIC50 in [1] of 8.57. The pIC50 in [2] is less than 6.00. For the same molecule, in [3], the “INFUS. + GHRH ID50 MEAN” value is 0.0432 mg/kg, the “INFUS. + GHRH ID50 15′” value stood at 0.0724 mg/kg, the “INFUS. + GHRH ID50 30′” value came out at 0.041 mg/kg and the “INFUS. + GHRH ID50 60′” value was found to be 0.0271 mg/kg. In [3], the “GH, Ur Inf15′ +GHRH” value came out at 50 µg/kg/h; the “GH, UR Inf30′ +GHRH” value is 30 µg/kg/h; the “GH, UR Inf60′ +GHRH” value was found to be 21 µg/kg/h. For the same molecule, the “GH vivo Inf + GHRH ID50” value in [3] (listed as 44 ch) is 43.00 µg/kg/h and 32 µg/kg/h. Further, the “Bind SS1 D.H.” value in [4] worked out at 1.00 nM. The same molecule had a pIC50 in [5] of 8.77. In addition, the “PROLACT 1 H ID50” value in data set [11] is “ø10000 μg/kg”. The pIC50 in data set [6] is 6.77. The pIC50 in data set [7] was less than 6.00. The “GH vivo s.c. 1 h ID50” value in data set [8] was found to be 0.258 mg/kg. For the same molecule, the “GH vivo s.c. 1 h ID50” value in [8] (listed as 44 ch) is 0.258 mg/kg. Besides, the pIC50 in data set [9] was less than 6.00. In addition, in [12], the “GH 1 H ID50” value is 16 mg/kg; the “MEAN ID50 (GH and prolactin)” value was 16 mg/kg. In data set [10], the “GH vivo i.d. 1 h ID50” value is 9.721 mg/kg and the “enteral ID50 (GH secretion)” value was 9.7 mg/kg.
`Cc1cccc2c(CC3C(=O)N(CCCCCN)C(=O)N3S(=O)(=O)c3ccc(Oc4ccc(O)cc4)c(CN)c3)c[nH]c12` (stereo not shown) [Compound 45] gave a pIC50 in data set [1] of 8.52. Also, in data set [2], the pIC50 is less than 6.00. For the same molecule, in [3], the “INFUS. + GHRH ID50 MEAN” value was found to be 0.03105 mg/kg, the “INFUS. + GHRH ID50 15′” value was determined as 0.034 mg/kg, the “INFUS. + GHRH ID50 30′” value was found to be 0.03 mg/kg and the “INFUS. + GHRH ID50 60′” value turned out to be 0.031 mg/kg. Also, in data set [3], the “GH, Ur Inf15′ +GHRH” value was 34.000 µg/kg/h; the “GH, UR Inf30′ +GHRH” value stood at 30.000 µg/kg/h; the “GH, UR Inf60′ +GHRH” value is 30.000 µg/kg/h. The “GH vivo Inf + GHRH ID50” value in data set [3] (listed as 45 ch) was 30.000 µg/kg/h. For the same molecule, the “GH vivo Inf + GHRH ID50” value in data set [3] (listed as 45 dch) was 31.05 µg/kg/h and 30.000 µg/kg/h. In [4], the “Bind SS1 D.H.” value turned out to be 1.00 nM. In [5], this molecule showed a pIC50 of 8.29. Moreover, the “PROLACT 1 H ID50” value in data set [11] was 16 mg/kg. The pIC50 in data set [6] was 7.01. For the same molecule, the pIC50 in data set [7] is 6.66. Moreover, the “GH vivo s.c. 1 h ID50” value in data set [8] is 0.048 mg/kg. Also, the “GH vivo s.c. 1 h ID50” value in data set [8] (listed as 45 ch) came out at 0.048 mg/kg. The “GH vivo s.c. 1 h ID50” value in data set [8] (listed as 45 dch) was 0.048 mg/kg. For the same molecule, in data set [9], the pIC50 was 5.85. Besides, in data set [12], the “GH 1 H ID50” value is 8 mg/kg; the “MEAN ID50 (GH and prolactin)” value was determined as 11.313 mg/kg. In data set [10], the “GH vivo i.d. 1 h ID50” value was 11.4 mg/kg and the “enteral ID50 (GH secretion)” value is given as 11.4 mg/kg. Besides, the “enteral bioavailability (from ID50 ratio)” value in data set [10] (intraduodenal 1 hour vs parenteral ID50) is recorded as “=0/42%”.
